Experimental data as given in patent US10961238B2, “Modulators of hedgehog (Hh) signaling pathway” (E-THERAPEUTICS PLC, priority 2016, dated 2021).

These compounds were tested on C3H10T1/2 cells (assay: C3H assay: differentiation of C3H10T1/2 cells by mSHH, measurement of alkaline phosphatase). Settings: Mus musculus, C3H 10T1/2, 72 h, read-out: IC50 Ranges.
Assay type: cell-based, mouse
For C[C@@H]1CN(C(=O)N2CC(S(=O)(=O)N3CCC(c4c[nH]c5ncccc45)CC3)C2)C[C@H](C)O1 [Compound 170], the IC50 was 10 to 100 nM.

Same assay, conditions: Mus musculus, C3H 10T1/2; C3H10T1/2 cells stimulated with mSHH for 72 hours; alkaline phosphatase activity; read-out: IC50 Ranges
C[C@@H]1CN(C(=O)N2CC(S(=O)(=O)N3CCC(c4c[nH]c5ncccc45)CC3)C2)C[C@@H](C)O1 [Compound 164, [(2R,6R)-2,6-dimethylmorpholin-4-yl]-[3-[4-(1H-pyrrolo[2,3-b]pyridin-3-yl)piperidin-1-yl]sulfonylaze-tidin-1-yl]methanone] gave an IC50 of 10 to 100 nM.
C[C@H]1COC[C@H](C)N1C(=O)N1CC(S(=O)(=O)N2CCC(c3c[nH]c4ncccc34)CC2)C1 [Compound 165, [(3S,5S)-3,5-dimethylmorpholin-4-yl]-[3-[4-(1H-pyrrolo[2,3-b]pyridin-3-yl)piperidin-1-yl]sulfonylaze-tidin-1-yl]methanone] was tested, and the IC50 was 100 to 1000 nM.
Compound CN(C)C(=O)N1CC(S(=O)(=O)N2CCC(c3c[nH]c4ncccc34)CC2)C1 [Compound 167, N,N-dimethyl-3-[4-(1H-pyrrolo[2,3-b]pyridin-3-yl)piperidin-1-yl]sulfonylaze-tidine-1-carboxamide] has an IC50 of 1000 to 10000 nM.
For CC1(C)COCC(C)(C)N1C(=O)N1CC(S(=O)(=O)N2CCC(c3c[nH]c4ncccc34)CC2)C1 [Compound 169, [3-[4-(1H-pyrrolo[2,3-b]pyridin-3-yl)piperidin-1 yl]sulfonylaze-tidin-1-yl]-(3,3,5,5-tetramethylmorpholin-4-yl)methanone], the IC50 was 10 to 100 nM.
CC(C)(C)OC(=O)N1CCN(S(=O)(=O)N2CC(S(=O)(=O)N3CCC(c4c[nH]c5ncccc45)CC3)C2)CC1 [Compound 172, tert-butyl 4-[3-[4-(1H-pyrrolo[2,3-b]pyridin-3-yl)piperidin-1-yl]sulfonylaze-tidin-1-yl] sulfonylpiper-azine-1-carboxylate] gave an IC50 of 10 to 100 nM.
Compound CC(C)N(C(=O)N1CC(S(=O)(=O)N2CCC(c3c[nH]c4ncccc34)CC2)C1)C(C)C [Compound 173, N,N-Diisopropyl-3-[[4-(1H-pyrrolo[2,3-b]pyridin-3-yl)-1-piperidyl]sulfonyl]azetidine-1-carboxamide] has an IC50 of 100 to 1000 nM.
CN(C(=O)N1CC(S(=O)(=O)N2CCC(c3c[nH]c4ncccc34)CC2)C1)C(C)(C)C [Compound 176, N-tert-butyl-N-methyl-3-[4-(1H-pyrrolo[2,3-b]pyridin-3-yl)piperidin-1-yl]sulfonylaze-tidine-1-carboxamide] gave an IC50 of under 10 nM.
CN(Cc1ccco1)C(=O)N1CC(S(=O)(=O)N2CCC(c3c[nH]c4ncccc34)CC2)C1 [Compound 178, N-(2-Furylmethyl)-N-methyl-3-[[4-(1H-pyrrolo[2,3-b]pyridin-3-yl)-1-piperidyl]sulfonyl]azetidine-1-carboxamide] showed an IC50 of 10 to 100 nM.
CC(C)NC(=S)N1CC(S(=O)(=O)N2CCC(c3c[nH]c4ncccc34)CC2)C1 [Compound 179, N-propan-2-yl-3-[4-(1H-pyrrolo[2,3-b]pyridin-3-yl)piperidin-1-yl]sulfonylaze-tidine-1-carbo-thioamide] gave an IC50 of 10 to 100 nM.
Compound COC1CCC(OC(=O)N2CC(S(=O)(=O)N3CCC(c4c[nH]c5ncccc45)CC3)C2)CC1 (centres unmarked) [Compound 180, (4-methoxycyclohexyl) 3-[4-(1H-pyrrolo[2,3-b]pyridin-3-yl)piperidin-1-yl]sulfonylaze-tidine-1-carboxylate] has an IC50 of 10 to 100 nM.
In the case of O=S(=O)(C1CN(c2ncccc2C2CC2)C1)N1CCC(c2c[nH]c3ncccc23)CC1 [Compound 181, 3-[1-[1-(3-cyclopropylpy-ridin-2-yl)azetidin-3-yl]sulfonylpiper-idin-4-yl]-1H-pyrrolo[2,3-b]pyridine], the IC50 is reported as 10 to 100 nM.
O=S(=O)(C1CN(c2ncccc2CO)C1)N1CCC(c2c[nH]c3ncccc23)CC1 [Compound 182, [2-[3-[4-(1H-pyrrolo[2,3-b]pyridin-3-yl)piperidin-1-yl]sulfonylaze-tidin-1-yl]pyridin-3-yl]methanol] gave an IC50 of 10 to 100 nM.
In the case of O=C(Oc1ccccc1O)N1CC(S(=O)(=O)N2CCC(c3c[nH]c4ncccc34)CC2)C1 [Compound 183, (2-hydroxyphenyl) 3-[4-(1H-pyrrolo[2,3-b]pyridin-3-yl)piperidin-1-yl]sulfonylaze-tidine-1-carboxylate], the IC50 is reported as 100 to 1000 nM.
O=S(=O)(C1CN(c2nc(C(F)(F)F)ccc2C(F)(F)F)C1)N1CCC(c2c[nH]c3ncccc23)CC1 [Compound 184, 3-[1-[1-[3,6-bis(trifluoromethyl)pyridin-2-yl]azetidin-3-yl]sulfonylpiper-idin-4-yl]-1H-pyrrolo[2,3-b]pyridine] gave an IC50 of 100 to 1000 nM.
COc1ccc(C(F)(F)F)c(N2CC(S(=O)(=O)N3CCC(c4c[nH]c5ncccc45)CC3)C2)n1 [Compound 185, 3-[1-[1-[6-methoxy-3-(trifluoromethyl)pyridin-2-yl]azetidin-3-yl]sulfonylpiper-idin-4-yl]-1H-pyrrolo[2,3-b]pyridine] was tested, and the IC50 was 100 to 1000 nM.
With O=S(=O)(C1CN(c2ncccc2C(F)(F)F)C1)N1CCC(c2c[nH]c3ncccc23)CC1 [Compound 186, 3-[1-[1-[3-(trifluoromethyl)pyridin-2-yl]azetidin-3-yl]sulfonylpiper-idin-4-yl]-1H-pyrrolo [2,3-b]pyridine] the IC50 was 100 to 1000 nM.
Cc1ccnc(N2CC(S(=O)(=O)N3CCC(c4c[nH]c5ncccc45)CC3)C2)c1C#N [Compound 187, 4-methyl-2-[3-[4-(1H-pyrrolo[2,3-b]pyridin-3-yl)piperidin-1-yl]sulfonylaze-tidin-1-yl]pyridine-3-carbonitrile] showed an IC50 of 100 to 1000 nM.
O=C(C1CCCCC1)N1CC(S(=O)(=O)N2CCC(c3c[nH]c4ncccc34)CC2)C1 [Compound 189, Cyclohexyl-[3-[[4-(1H-pyrrolo[2,3-b]pyridin-3-yl)-1-piperidyl]sulfonyl]azetidin-1-yl]methanone] gave an IC50 of 10 to 100 nM.
O=C(C1CCCC1)N1CC(S(=O)(=O)N2CCC(c3c[nH]c4ncccc34)CC2)C1 [Compound 190, cyclopentyl-[3-[4-(1H-pyrrolo[2,3-b]pyridin-3-yl)piperidin-1-yl]sulfonylaze-tidin-1-yl]methanone] showed an IC50 of 10 to 100 nM.
With O=C(C1CC1)N1CC(S(=O)(=O)N2CCC(c3c[nH]c4ncccc34)CC2)C1 [Compound 191, cyclopropyl-[3-[4-(1H-pyrrolo[2,3-b]pyridin-3-yl)piperidin-1-yl]sulfonylaze-tidin-1-yl]methanone] the IC50 was 100 to 1000 nM.
With O=C(c1ccccn1)N1CC(S(=O)(=O)N2CCC(c3c[nH]c4ncccc34)CC2)C1 [Compound 192, pyridin-2-yl-[3-[4-(1H-pyrrolo[2,3-b]pyridin-3-yl)piperidin-1-yl]sulfonylaze-tidin-1-yl]methanone] the IC50 was 100 to 1000 nM.
O=C(c1cccs1)N1CC(S(=O)(=O)N2CCC(c3c[nH]c4ncccc34)CC2)C1 [Compound 193, [3-[4-(1H-pyrrolo[2,3-b]pyridin-3-yl)piperidin-1-yl]sulfonylaze-tidin-1-yl]-thiophen-2-ylmethanone] gave an IC50 of 10 to 100 nM.
CC(C)C(=O)N1CC(S(=O)(=O)N2CCC(c3c[nH]c4ncccc34)CC2)C1 [Compound 194, 2-methyl-1-[3-[4-(1H-pyrrolo[2,3-b]pyridin-3-yl)piperidin-1-yl]sulfonylaze-tidin-1-yl]propan-1-one] gave an IC50 of 100 to 1000 nM.
In the case of CC(C)CC(=O)N1CC(S(=O)(=O)N2CCC(c3c[nH]c4ncccc34)CC2)C1 [Compound 195, 3-methyl-1-[3-[4-(1H-pyrrolo[2,3-b]pyridin-3-yl)piperidin-1-yl]sulfonylaze-tidin-1-yl]butan-1-one], the IC50 is reported as 10 to 100 nM.
Compound O=C(O[C@@H]1CCOC1)N1CC(S(=O)(=O)N2CCC(c3c[nH]c4ncccc34)CC2)C1 [Compound 196, [(3R)-oxolan-3-yl]3-[4-(1H-pyrrolo[2,3-b]pyridin-3-yl)piperidin-1-yl]sulfonylaze-tidine-1-carboxylate] has an IC50 of 100 to 1000 nM.
Compound O=C(O[C@H]1CCOC1)N1CC(S(=O)(=O)N2CCC(c3c[nH]c4ncccc34)CC2)C1 [Compound 197, [(3S)-oxolan-3-yl]3-[4-(1H-pyrrolo[2,3-b]pyridin-3-yl)piperidin-1-yl]sulfonylaze-tidine-1-carboxylate] has an IC50 of 10 to 100 nM.
With O=C(OC1CCC1)N1CC(S(=O)(=O)N2CCC(c3c[nH]c4ncccc34)CC2)C1 [Compound 198, cyclobutyl 3-[4-(1H-pyrrolo[2,3-b]pyridin-3-yl)piperidin-1-yl]sulfonylaze-tidine-1-carboxylate] the IC50 was 10 to 100 nM.
CC1(COC(=O)N2CC(S(=O)(=O)N3CCC(c4c[nH]c5ncccc45)CC3)C2)COC1 [Compound 199, (3-methyloxetan-3-yl)methyl 3-[4-(1H-pyrrolo[2,3-b]pyridin-3-yl)piperidin-1-yl]sulfonylaze-tidine-1-carboxylate] was tested, and the IC50 was 10 to 100 nM.
With CC[C@@H](C)OC(=O)N1CC(S(=O)(=O)N2CCC(c3c[nH]c4ncccc34)CC2)C1 [Compound 200, [(2R)-butan-2-yl]3-[4-(1H-pyrrolo[2,3-b]pyridin-3-yl)piperidin-1-yl]sulfonylaze-tidine-1-carboxylate] the IC50 was 10 to 100 nM.
O=C(OCC1CCC1)N1CC(S(=O)(=O)N2CCC(c3c[nH]c4ncccc34)CC2)C1 [Compound 201, cyclobutylmethyl 3-[4-(1H-pyrrolo[2,3-b]pyridin-3-yl)piperidin-1-yl]sulfonylaze-tidine-1-carboxylate] gave an IC50 of 10 to 100 nM.
Work on Cc1noc(C)c1COC(=O)N1CC(S(=O)(=O)N2CCC(c3ccncc3)CC2)C1 [Compound 202, (3,5-dimethyl-1,2-oxazol-4-yl)methyl 3-(4-pyridin-4-ylpiperidin-1-yl)sulfonylaze-tidine-1-carboxylate] yielded an IC50 of 100 to 1000 nM.
Cc1noc(C)c1CNC(=O)N1CC(S(=O)(=O)N2CCC(c3ccncc3)CC2)C1 [Compound 203, N-[(3,5-dimethyl-1,2-oxazol-4-yl)methyl]-3-(4-pyridin-4-ylpiperidin-1-yl)sulfonylaze-tidine-1-carboxamide] gave an IC50 of 1000 to 10000 nM.
Work on O=C(OCC1CC1)N1CC(S(=O)(=O)N2CCC(c3c[nH]c4ncccc34)CC2)C1 [Compound 204, cyclopropylmethyl 3-[4-(1H-pyrrolo[2,3-b]pyridin-3-yl)piperidin-1-yl]sulfonylaze-tidine-1-carboxylate] yielded an IC50 of 10 to 100 nM.
For Cc1noc(C)c1CC(=O)N1CC(S(=O)(=O)N2CCC(c3ccncc3)CC2)C1 [Compound 205, 2-(3,5-dimethyl-1,2-oxazol-4-yl)-1-[3-(4-pyridin-4-ylpiperidin-1-yl)sulfonylaze-tidin-1-yl]ethanone], the IC50 was 10 to 100 nM.
